Source: paper PMC11881662 (Journal of Enzyme Inhibition and Medicinal Chemistry, 2025)
In brackets after ≈: the same amount, converted by molar mass. Several values for one entry are separate records, joined by “and”; a condition that tells them apart may be missing. Equal entries are not always repeated.

Legend:
T4 coliphage DNA = assay: Ethidium bromide assay, DNA-binding effects on T4 coliphage DNA; details: EtBr-DNA complex, compound 10 μM, 25 °C 30 min
poly(dA-dT)2 = assay: Ethidium bromide assay, DNA-binding effects on poly; details: EtBr-DNA complex, compound 10 μM, 25 °C 30 min
poly(dG-dC)2 = assay: as above; details: EtBr-DNA complex, compound 10 μM, 25 °C 30 min
plasmid pBR322 [1] = assay: Ethidium bromide assay, DNA-binding effects on plasmid pBR322; details: EtBr-DNA complex, compound 10 μM, 25 °C 30 min; no drug = 100% fluorescence
calf thymus DNA = assay: Ethidium bromide assay, DNA-binding effects on calf thymus DNA; details: EtBr-DNA complex, compound 10 μM, 25 °C 30 min
recombinant human DHFR = target: T1, recombinant human DHFR (Homo sapiens, UniProt P00374); assay: Dihydrofolate reductase; format: biochemical
T1 sequence (P00374 1-187): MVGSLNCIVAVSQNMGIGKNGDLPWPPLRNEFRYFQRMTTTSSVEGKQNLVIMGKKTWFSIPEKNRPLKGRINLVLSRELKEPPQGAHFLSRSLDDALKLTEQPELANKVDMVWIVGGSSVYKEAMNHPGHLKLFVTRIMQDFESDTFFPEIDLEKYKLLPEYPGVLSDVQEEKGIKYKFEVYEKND

[2] = test system: normal human skin fibroblasts (HSF); assay: Normal cytotoxicity evaluation, MTT; format: cell-based; details: Skin fibroblast, 24 h, read-out: Normal HSF IC50
MCF-7 cells [3] = assay: Wound healing assay; format: cell-based, human; details: MCF-7, at IC50 concentrations
[4] = test system: MCF-7 breast cancer cell line; assay: In vitro anti-proliferative MTT assay; format: cell-based, human; details: for IC50: Homo sapiens, MCF7, 24 h, read-out: MCF-7 IC50; for Selectivity index (SI): IC50 against normal cells (HSF) divided by IC50 against cancer cells (MCF-7)
MCF-7 cells [5] = assay: Apoptosis induction, Annexin V-FITC/PI flow cytometry; format: cell-based, human; details: MCF-7, at IC50, 24 h
plasmid pBR322 [6] = details: NT under the same conditions; cited from earlier work

Row | Decrease in fluorescence (%) Poly (dA-dT)2 (poly(dA-dT)2) [%] | Decrease in fluorescence (%) Poly (dG-dC)2 (poly(dG-dC)2) | Decrease in fluorescence (%) pBr322 (plasmid pBR322 [1]) [%] | IC50 (recombinant human DHFR) [µM] | IC50 [4] [µg/mL] | Compound | Decrease in fluorescence (%) T4 DNA (T4 coliphage DNA) [%] | Decrease in fluorescence (%) Calf Thymus DNA (calf thymus DNA) [%] | IC50 [2] [µg/mL] | % Wound closure after 24 h treatment (MCF-7 cells [3]) [%] | Selectivity index (SI) [4] | Percentage of necrosis (MCF-7 cells [5]) [%] | Percentage of total apoptosis (MCF-7 cells [5]) [%] | Decrease in fluorescence (%) pBr322 (degree of EtBr displacement) (plasmid pBR322 [6]) [%]
1 | 51.29 | 63.12% | 64.16 | 53.18 ± 0.01 | – | O=C(O)C(/C=C/c1c(Cl)cccc1Cl)=N\Nc1nc(-c2ccc(Cl)cc2)cs1 [Compound 16, (2Z,3E)-4-(2,6-dichlorophenyl)-2-(2-(4-(4-chlorophenyl)thiazol-2-yl)hydrazinylidene)but-3-enoic acid] | 52.44 | 50.53 | – | – | – | – | – | –
2 | 52.83 | 62.99% | 60.93 | 10.51 ± 0.05 | – | O=C(O)C(/C=C/c1ccc(Cl)cc1)=N\Nc1nc(-c2ccc(F)cc2)cs1 [Compound 8, (2Z,3E)-4-(4-Chlorophenyl)-2-(2-(4-(4-fluorophenyl)thiazol-2-yl)hydrazinylidene)but-3-enoic acid] | 37.19 | 40.00 | – | – | – | – | – | –
3 | 53.39 | 56.57% | 56.21 | 0.06 ± 0.03 | 12.5 (≈ 29.2 µM) | O=C(O)C(/C=C/c1ccc(Cl)cc1)=N\Nc1nc(-c2ccc([N+](=O)[O-])cc2)cs1 [Compound 11, (2Z,3E)-4-(4-Chlorophenyl)-2-(2-(4-(4-nitrophenyl)thiazol-2-yl)hydrazinylidene)but-3-enoic acid] | 28.89 | 46.31 | 84.4 (≈ 197 µM) | 52.72 | 6.74 | 4.81 | 23.99 | –
4 | 71.19 | 49.23% | 53.40 | 36.18 ± 0.01 | – | O=C(O)C(/C=C/c1ccc(Cl)cc1)=N\Nc1nc(-c2ccc(Cl)cc2)cs1 [Compound 9, (2Z,3E)-4-(4-Chlorophenyl)-2-(2-(4-(4-chlorophenyl)thiazol-2-yl)hydrazinylidene)but-3-enoic acid] | 50.00 | 53.68 | – | – | – | – | – | –
5 | 55.27 | 57.81% | 70.97 | 62.31 ± 0.02 | – | O=C(O)C(/C=C/c1c(Cl)cccc1Cl)=N\Nc1nc(-c2ccc(F)cc2)cs1 [Compound 15, (2Z,3E)-4-(2,6-dichlorophenyl)-2-(2-(4-(4-fluorophenyl)thiazol-2-yl)hydrazinylidene)but-3-enoic acid] | 39.02 | 72.10 | – | – | – | – | – | –
6 | 54.80 | 59.37% | 54.84 | 21.06 ± 0.02 | – | O=C(O)C(/C=C/c1c(Cl)cccc1Cl)=N\Nc1nc(-c2ccccc2)cs1 [Compound 12, (2Z,3E)-4-(2,6-dichlorophenyl)-2-(2-(4-phenylthiazol-2-yl)hydrazinylidene)but-3-enoic acid] | 48.17 | 60.53 | – | – | – | – | – | –
7 | 42.62 | 63.44% | 61.65 | 60.28 ± 0.02 | – | O=C(O)C(/C=C/c1c(Cl)cccc1Cl)=N\Nc1nc(-c2ccc(Br)cc2)cs1 [Compound 17, (2Z,3E)-4-(2,6-dichlorophenyl)-2-(2-(4-(4-bromophenyl)thiazol-2-yl)hydrazinylidene)but-3-enoic acid] | 35.36 | 54.21 | – | – | – | – | – | –
8 | 37.00 | 62.50% | 55.56 | 63.18 ± 0.01 | – | O=C(O)C(/C=C/c1c(Cl)cccc1Cl)=N\Nc1nc(-c2ccc([N+](=O)[O-])cc2)cs1 [Compound 18, (2Z,3E)-4-(2,6-dichlorophenyl)-2-(2-(4-(4-nitrophenyl)thiazol-2-yl)hydrazinylidene)but-3-enoic acid] | 45.12 | 76.84 | – | – | – | – | – | –
9 | 55.74 | 75.62% | 62.01 | 18.06 ± 0.03 | – | Cc1ccc(-c2csc(N/N=C(/C=C/c3c(Cl)cccc3Cl)C(=O)O)n2)cc1 [Compound 13, (2Z,3E)-4-(2,6-dichlorophenyl)-2-(2-(4-(4-tolyl)thiazol-2-yl)hydrazinylidene)but-3-enoic acid] | 51.22 | 67.71 | – | – | – | – | – | –
10 | – | 62.38% | 62.36 | 39.41 ± 0.03 | – | COc1ccc(-c2csc(N/N=C(/C=C/c3ccc(Cl)cc3)C(=O)O)n2)cc1 [Compound 7, (2Z,3E)-4-(4-Chlorophenyl)-2-(2-(4-(4-methoxyphenyl)thiazol-2-yl)hydrazinylidene)but-3-enoic acid] | 36.58 | 44.21 | – | – | – | – | – | –
11 | 67.21 | 61.25% | 51.61 | 31.02 ± 0.04 | – | COc1ccc(-c2csc(N/N=C(/C=C/c3c(Cl)cccc3Cl)C(=O)O)n2)cc1 [Compound 14, (2Z,3E)-4-(2,6-dichlorophenyl)-2-(2-(4-(4-methoxyphenyl)thiazol-2-yl)hydrazinylidene)but-3-enoic acid] | 40.85 | 58.95 | – | – | – | – | – | –
12 | – | – | 100 | 8.31 ± 0.06 | – | COc1cccc2c1C(=O)c1c(O)c3c(c(O)c1C2=O)C[C@@](O)(C(=O)CO)C[C@@H]3O[C@H]1C[C@H](N)[C@H](O)[C@H](C)O1 [DOX, doxorubicin, reference compound] | – | – | – | – | – | – | – | –
13 | – | – | 100 | – | 56.9 (≈ 125 µM) | CN(Cc1cnc2nc(N)nc(N)c2n1)c1ccc(C(=O)N[C@@H](CCC(=O)O)C(=O)O)cc1 [MTX, Methotrexate, reference compound] | – | – | 126 (≈ 276 µM) | 45.46 | – | 6.50 | – | –
14 | 39.34 | 50.15% | 53.76 | 58.29 ± 0.02 | – | O=C(O)C(/C=C/c1ccc(Cl)cc1)=N\Nc1nc(-c2ccc(Br)cc2)cs1 [Compound 10, (2Z,3E)-4-(4-Chlorophenyl)-2-(2-(4-(4-bromophenyl)thiazol-2-yl)hydrazinylidene)but-3-enoic acid] | 32.32 | 30.53 | – | – | – | – | – | –
15 | 56.91 | 67.28% | 63.44 | 0.08 ± 0.001 | 2.72 (≈ 7.09 µM) | O=C(O)C(/C=C/c1ccc(Cl)cc1)=N\Nc1nc(-c2ccccc2)cs1 [Compound 5, (2Z,3E)-4-(4-Chlorophenyl)-2-(2–(4-phenylthiazol-2-yl)hydrazinylidene)but-3-enoic acid] | 28.05 | 63.15 | 32.6 (≈ 84.8 µM) | 45.19 | 11.97 | 3.09 | 29.63 | –
16 | – | – | 100 | – | – | COc1cc(Cc2cnc(N)nc2N)cc(OC)c1OC [TMP, trimethoprim, reference compound] | – | – | – | – | – | – | – | –

Row | Compound | Decrease in fluorescence (%) Poly (dA-dT)2 (poly(dA-dT)2) [%] | Decrease in fluorescence (%) Poly (dG-dC)2 (poly(dG-dC)2) | Decrease in fluorescence (%) pBr322 (plasmid pBR322 [1]) [%] | IC50 (recombinant human DHFR) [µM] | IC50 [4] [µg/mL] | Decrease in fluorescence (%) T4 DNA (T4 coliphage DNA) [%] | Decrease in fluorescence (%) Calf Thymus DNA (calf thymus DNA) [%] | IC50 [2] [µg/mL] | % Wound closure after 24 h treatment (MCF-7 cells [3]) [%] | Selectivity index (SI) [4] | Percentage of necrosis (MCF-7 cells [5]) [%] | Percentage of total apoptosis (MCF-7 cells [5]) [%] | Decrease in fluorescence (%) pBr322 (degree of EtBr displacement) (plasmid pBR322 [6]) [%]
17 | Cn1cc(NC(=O)c2cc(NC(=O)CN=C(N)N)cn2C)cc1C(=O)NCCC(=N)N [NT, netropsin, reference compound] | 62.02 | 85% and 85.13% | – | – | – | 70.06 | 90.24 | – | – | – | – | – | 74
